From patent US20090247558A1, “USE OF THE CRH (CORTICOTROPIN RELEASING HORMONE) - UCN (UROCORTIN) SYSTEM IN THE TREATMENT OF INFLAMMATORY DISEASES” (priority 2002, published 2009)
No end group written: not given here.

Experiments:
RAW-264.7 macrophages = assay: Apoptosis and proliferation of RAW264.7 macrophages (nucleosome formation, flow cytometry); format: cell-based, mouse
Procedure: (§1) Cells were plated in 96-well plates at an initial concentration of 10,000 cells per well. Apoptosis was measured by direct determination of nucleosomal DNA fragmentation with the “cell death detection” ELISA plus kit according to the manufacturer's protocol.
(§2) Cells were treated with UCN and/or LPS at the indicated concentrations for different time points, collected in PBS and incubated with 7-amino-actinomycin (7AAD) for 10 minutes. Cells were washed and analyzed by Flow Cytometry (Coulter).

[1] = tested on: primary bone marrow macrophages; assay: Apoptosis of primary bone marrow macrophages; format: cell-based
Procedure: as §1, §2

RAW264.7 cells = assay: Stress kinase, Bax and Fas Ligand in RAW264.7 cells (Western blot); format: cell-based, mouse
Procedure: Following stimulation cells were harvested and lyzed in 62.5 mM Tris HCl pH=6.8, 10% glycerol, 2% SDS, and freshly added inhibitors phenylmethylsulfonyl fluoride (10 μg/ml), 0.5 mM DTT and 50 mM Na2F.

CRH-R2 receptor = target: T1, CRH-R2 receptor (Mus musculus, UniProt Q60748); settings: cited from earlier work
T1 construct: monocyte/macrophage cells which express both the CRH-R1 and the CRH-R2 receptors on the surface; endogenous in cells; host or cells: macrophages
T1 sequence (Q60748 whole entry): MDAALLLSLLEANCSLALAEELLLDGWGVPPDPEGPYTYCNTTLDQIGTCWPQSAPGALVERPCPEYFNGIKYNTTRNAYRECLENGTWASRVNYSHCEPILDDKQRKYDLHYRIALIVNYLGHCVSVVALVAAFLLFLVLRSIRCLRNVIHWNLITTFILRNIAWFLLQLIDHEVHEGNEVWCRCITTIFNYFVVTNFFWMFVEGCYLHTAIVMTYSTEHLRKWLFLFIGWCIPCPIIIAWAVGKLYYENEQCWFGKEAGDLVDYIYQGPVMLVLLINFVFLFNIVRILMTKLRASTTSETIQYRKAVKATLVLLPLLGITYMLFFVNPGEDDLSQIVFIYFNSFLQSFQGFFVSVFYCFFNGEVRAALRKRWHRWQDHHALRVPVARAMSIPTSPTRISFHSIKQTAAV

urocortin (DNPSLSIDLTFHLLRTLLELARTQSQRERAEQNRIIFDSV; ends and bridges not checked; UniProt P55089 83-122, looked up) [UCN]
cell proliferation (RAW-264.7 macrophages; cells cultured in the presence of serum): promoted cell proliferation | apoptosis (RAW-264.7 macrophages; serum-deprived, LPS-induced cells, 10^−9M UCN, 10 μg/ml LPS): promoted apoptosis | LPS-induced apoptosis [1]: enhanced | LPS-induced p38MAPK and JNK activation (RAW264.7 cells; UCN plus LPS): enhances | Bax (RAW264.7 cells; UCN treatment): upregulation | Fas Ligand expression (RAW264.7 cells; UCN treatment): enhancement | activation of the stress-induced kinases JNK and p38MAPK (RAW264.7 cells; UCN treatment): rapid activation | apoptosis on macrophages (CRH-R2 receptor): induce apoptosis
